According to patent publication US20120035125A1, “FULVIC ACID IN COMBINATION WITH FLUCONAZOLE OR AMPHOTERICIN B FOR THE TREATMENT OF FUNGAL INFECTIONS” (Natracine UK Limited, priority 2009, published 2012):
Values after ≈ are worked out from the molar mass of the structure shown.

Legend:
Absidia corymbifera = assay: In vitro susceptibility (MIC, broth microdilution), CHD-FA and amphotericin B; format: cell-based; details: Lichtheimia corymbifera
Method: (§1) Each culture was grown on Sabouraud agar at 37° C. for 10 days to ensure purity and to allow spores to mature
(§2) RPMI-1640 (Sigma, Dorset, UK) supplemented to 2% glucose (Sigma), buffered with morpholinopropanesulfonic acid (MOPS), (Sigma) and adjusted to pH 7.0 was used as recommended in the Clinical Laboratory Standards M38A document (Reference method for broth dilution antifungal susceptibility testing of conidium-forming filamentous fungi. Approved standard. Document M38-A 2002a. NCCLS, Wayne, Pa. 2002. NCCLS, Wayne, Pa., USA).
(§3) a) All fungi were cultured in ambient air at 35-37° C. on recovery medium (Sabouraud dextrose agar) for 8-10 days before testing.
(§4) b) Inoculum suspensions were prepared from day 8 to 10 day cultures grown on Sabouraud dextrose agar at 37° C. in vented tissue culture flasks to avoid crosscontamination. Spores were harvested by flooding the surface of the growth with 25 ml of sterile phosphate buffered saline plus 0.05% Tween 80. The spore count was adjusted using a counting chamber.
(§5) c) The inoculum was completely suspended by vigorous shaking on a vortex mixer for 15 s. […] Drug-free and cell-free controls were included. (The RPMI medium used in the plates was prepared at either 2× or 4×the final strength to allow for dilution once the inoculum and diluted CHD-FA was added).
(§6) Sterile plastic, disposable, microtitration plates with 96 flat-bottom wells were used.
(§7) a) Column 1 of the microtitration tray was filled with 100 μL of sterile water containing four times the final drug concentration (16 mg/L amphotericin B).
(§8) b) Columns 2-12 were filled with 50 μL of distilled water
(§9) c) 50 μL amounts were taken from wells in column 1 and diluted two-fold by transferring them to column 2 with a multichannel pipette (±2% coefficient of variation). 50 μL samples were then removed from column 2 and transferred to column 3, and so on through to column 10. The last 50 μL of diluted drug is then discarded. Thus, each well in columns 1-10 will contain 50 μL of water containing four times the final antifungal drug concentrations.
(§10) Stock solutions of CHD-FA were produced containing 4%, 2%, 1%, 0.5% and 0.25% of the native compound.
(§11) 100 μL of the diluted CHD-FA was added to microtitration trays in so that row A contains a final dilution of 2% row B, 1%, row C 0.5%, row D 0.25% row E 0.125% and row F diluent only.
(§12) 50 μL of the diluted spore suspension in 4×RPMI was added to all wells. This produces a well containing 200 μL final volume (made up of 50 μL diluted antifungal, 100 μL diluted CHD-FA or diluent, 50 μL of 4×RPMI containing fungal spores)
(§13) All plates were incubated at 37° C. in air in a darkened incubator.
(§14) Plates were read visually with the endpoint taken as the lowest concentration of drug that inhibited growth by 50% of that of the drug free control.

Aspergillus fumigatus = assay: as above; format: cell-based; details: for MIC: Aspergillus fumigatus
Method: as §1, §2, §3, §4, §5, §6, §7, §8, §9, §10, §11, §12, §13, §14

Aspergillus terreus = assay: as above; format: cell-based; details: for MIC: Aspergillus terreus
Method: as §1, §2, §3, §4, §5, §6, §7, §8, §9, §10, §11, §12, §13, §14

Aspergillus flavus = assay: as above; format: cell-based; details: for MIC: Aspergillus flavus
Method: as §1, §2, §3, §4, §5, §6, §7, §8, §9, §10, §11, §12, §13, §14

Fusarium solani = assay: as above; format: cell-based
Method: as §1, §2, §3, §4, §5, §6, §7, §8, §9, §10, §11, §12, §13, §14

Aspergillus = details: stated to be toxic to the subject; cited from earlier work

## C[C@@H]1[C@H](O)[C@@H](C)/C=C/C=C/C=C/C=C/C=C/C=C/C=C/[C@H](O[C@@H]2O[C@H](C)[C@@H](O)[C@H](N)[C@@H]2O)C[C@@H]2O[C@](O)(C[C@@H](O)C[C@@H](O)[C@H](O)CC[C@@H](O)C[C@@H](O)CC(=O)O[C@H]1C)C[C@H](O)[C@H]2C(=O)O [Amphotericin B]
Absidia corymbifera; Absidia isolate 1
  MIC: 0.25 µg/mL (≈ 0.271 µM)
Absidia corymbifera; Absidia isolate 2
  MIC: 0.06 µg/mL (≈ 0.0649 µM)
Aspergillus fumigatus; A. fumigates strain 1, CHD-FA Dilution 0.125
  Amphotericin MIC: 0.06 µg/mL
Aspergillus fumigatus; A. fumigates strain 1, CHD-FA Dilution 0.25
  Amphotericin MIC: No Growth
Aspergillus fumigatus; A. fumigates strain 1, CHD-FA Dilution 0.5
  Amphotericin MIC: No Growth
Aspergillus fumigatus; A. fumigates strain 2, CHD-FA Dilution 0.125
  Amphotericin MIC: 0.125 µg/mL
Aspergillus fumigatus; A. fumigates strain 2, CHD-FA Dilution 0.25
  Amphotericin MIC: No Growth
Aspergillus fumigatus; A. fumigates strain 2, CHD-FA Dilution 0.5
  Amphotericin MIC: No Growth
Aspergillus fumigatus; A. fumigatus isolate 1
  MIC: 0.5 µg/mL (≈ 0.541 µM)
Aspergillus fumigatus; A. fumigatus isolate 2
  MIC: 0.25 µg/mL (≈ 0.271 µM)
Aspergillus terreus; A. terreus strain 1, CHD-FA Dilution 0.125
  Amphotericin MIC: 0.25 µg/mL
Aspergillus terreus; A. terreus strain 1, CHD-FA Dilution 0.25
  Amphotericin MIC: No Growth
Aspergillus terreus; A. terreus strain 1, CHD-FA Dilution 0.5
  Amphotericin MIC: No Growth
Aspergillus terreus; A. terreus strain 2, CHD-FA Dilution 0.125
  Amphotericin MIC: 0.125 µg/mL
Aspergillus terreus; A. terreus strain 2, CHD-FA Dilution 0.25
  Amphotericin MIC: No Growth
Aspergillus terreus; A. terreus strain 2, CHD-FA Dilution 0.5
  Amphotericin MIC: No Growth
Aspergillus terreus; A. terreus isolate 1
  MIC: 0.5 µg/mL (≈ 0.541 µM)
Aspergillus terreus; A. terreus isolate 2
  MIC: 1 µg/mL (≈ 1.08 µM)
Aspergillus flavus; A. flavus strain 1, CHD-FA Dilution 0.125
  Amphotericin MIC: > 4 µg/mL
Aspergillus flavus; A. flavus strain 1, CHD-FA Dilution 0.25
  Amphotericin MIC: No Growth
Aspergillus flavus; A. flavus strain 1, CHD-FA Dilution 0.5
  Amphotericin MIC: No Growth
Aspergillus flavus; A. flavus strain 2, CHD-FA Dilution 0.125
  Amphotericin MIC: 0.25 µg/mL
Aspergillus flavus; A. flavus strain 2, CHD-FA Dilution 0.25
  Amphotericin MIC: No Growth
Aspergillus flavus; A. flavus strain 2, CHD-FA Dilution 0.5
  Amphotericin MIC: No Growth
Aspergillus flavus; A. flavus isolate 1
  MIC: 4 µg/mL (≈ 4.33 µM)
Aspergillus flavus; A. flavus isolate 2
  MIC: 0.5 µg/mL (≈ 0.541 µM)
Fusarium solani; Fusarium isolate 2
  Amphotericin MIC: 2.0 mg/L
Fusarium solani; Fusarium solani, Fusarium isolate 1
  MIC: 2 µg/mL (≈ 2.16 µM)
Aspergillus
  dose required to inhibit Aspergillus: 3 mg/L
